Values joined by “and” are separate entries in the source; they are usually repeats but may differ in a detail not shown here. Equal values may be shown once. Toxic doses and inconclusive results are not listed. Cut-off read from the data, not from the text of the source: active = T/C of 150% or more; inactive = T/C below 125%.
Test system: L1210 leukemia ip in BDF1 mice, survival T/C
Assay: NCI In Vivo Anticancer Drug Screen. Data for tumor model L1210 Leukemia (intraperitoneal) in B6D2F1 (BDF1) mice
Details: endpoint: mean survival time, higher = longer survival
How it was run: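 Tumor cells were implanted, animals were treated, and survival was followed. The result divides the treated measurement by the vehicle-control measurement.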

[1] = dose: 100.0 mg/kg/injection, schedule: Q01DX001 (ip), vehicle: saline with Tween-80
[2] = dose: 200.0 mg/kg/injection, schedule: Q01DX001 (ip), vehicle: saline with Tween-80
[3] = dose: 400.0 mg/kg/injection, schedule: Q01DX001 (ip), vehicle: saline with Tween-80
[4] = dose: 100.0 mg/kg/injection, schedule: Q04DX002 (ip), vehicle: saline with Tween-80
[5] = dose: 200.0 mg/kg/injection, schedule: Q04DX002 (ip), vehicle: saline with Tween-80
[6] = dose: 400.0 mg/kg/injection, schedule: Q04DX002 (ip), vehicle: saline with Tween-80
[7] = dose: 100.0 mg/kg/injection, schedule: Q01DX009 (ip), vehicle: saline with Tween-80
[8] = dose: 100.0 mg/kg/injection, schedule: Q04DX003 (ip), vehicle: saline with Tween-80
[9] = dose: 200.0 mg/kg/injection, schedule: Q01DX009 (ip), vehicle: saline with Tween-80
[10] = dose: 200.0 mg/kg/injection, schedule: Q04DX003 (ip), vehicle: saline with Tween-80
[11] = dose: 400.0 mg/kg/injection, schedule: Q04DX003 (ip), vehicle: saline with Tween-80
[12] = dose: 25.0 mg/kg/injection, schedule: Q04DX003 (ip), vehicle: saline
[13] = dose: 100.0 mg/kg/injection, schedule: Q04DX003 (ip), vehicle: Klucel (hydroxypropylcellulose) (HPC)
[14] = dose: 400.0 mg/kg/injection, schedule: Q04DX003 (ip), vehicle: Klucel (hydroxypropylcellulose) (HPC)

Measured: T/C

CCCCCCCCC(CCc1ccccc1)CCc1ccccc1
inactive: [1] 93 % of control | [2] 93 % of control | [3] 96 % of control

COC1=C(C(=O)O)P(C)(=O)CC1 (stereo not drawn)
inactive: dose: 50.0 mg/kg/injection, schedule: Q04DX002 (ip), vehicle: saline with Tween-80 95 % of control | [4] 98 % of control | [5] 95 % of control

Cc1cc(Cl)ccc1O/C(=C/C(=O)O)C(=O)O
inactive: [4] 107 % of control | [5] 107 % of control | [6] 100 % of control

O=C(O)C1CC1(Br)Br (stereo not drawn)
inactive: dose: 100.0 mg/kg/injection, schedule: Q04DX003 (ip), vehicle: acetone 87 % of control

CCCCCCCCCCCCSC1=NCCN1
inactive: dose: 25.0 mg/kg/injection, schedule: Q04DX003 (ip), vehicle: Klucel (hydroxypropylcellulose) (HPC) 100 % of control | dose: 45.0 mg/kg/injection, schedule: Q04DX003 (ip), vehicle: Klucel (hydroxypropylcellulose) (HPC) 95 % of control | dose: 87.5 mg/kg/injection, schedule: Q04DX003 (ip), vehicle: Klucel (hydroxypropylcellulose) (HPC) 100 % of control | dose: 88.0 mg/kg/injection, schedule: Q04DX003 (ip), vehicle: Klucel (hydroxypropylcellulose) (HPC) 103 % of control

Oc1ccccc1C=NCCCN1CCOCC1.Oc1ccccc1C=NCCCN1CCOCC1.[Co]
inactive: dose: 12.5 mg/kg/injection, schedule: Q01DX001 (ip), vehicle: saline 98 % of control | dose: 25.0 mg/kg/injection, schedule: Q01DX001 (ip), vehicle: saline 100 % of control | dose: 50.0 mg/kg/injection, schedule: Q01DX001 (ip), vehicle: saline 98 % of control

CC1(C)N=C(N)N=C(N)N1c1ccccc1I
inactive: dose: 12.5 mg/kg/injection, schedule: Q01DX009 (ip), vehicle: Klucel (hydroxypropylcellulose) (HPC) 100 % of control | dose: 25.0 mg/kg/injection, schedule: Q01DX009 (ip), vehicle: Klucel (hydroxypropylcellulose) (HPC) 110 % of control | dose: 50.0 mg/kg/injection, schedule: Q01DX009 (ip), vehicle: Klucel (hydroxypropylcellulose) (HPC) 97 % of control

CC(=O)Nc1ccc(NC(=O)c2ccc(Cl)cc2)cc1
inactive: dose: 50.0 mg/kg/injection, schedule: Q01DX001 (ip), vehicle: saline with Tween-80 95 % of control | [1] 95 % of control | [7] 97 % of control and 87 % of control | [4] 90 % of control and 91 % of control | [8] 92 % of control | [2] 90 % of control | [9] 95 % of control and 97 % of control | [5] 93 % of control and 97 % of control | [10] 89 % of control | [3] 87 % of control | dose: 400.0 mg/kg/injection, schedule: Q01DX009 (ip), vehicle: saline with Tween-80 97 % of control and 90 % of control | [6] 90 % of control and 92 % of control | [11] 87 % of control

O=C(Nc1ccc(C2=NCCN2)cc1)c1ccc([N+](=O)[O-])c(C(=O)Nc2ccc(C3=NCCN3)cc2)c1
inactive: dose: 10.0 mg/kg/injection, schedule: Q01DX Z (ip), vehicle: carboxymethylcellulose (CMC) 108 % of control | dose: 19.0 mg/kg/injection, schedule: Q01DX Z (ip), vehicle: carboxymethylcellulose (CMC) 108 % of control

NC(CSSCC(NC(=O)CNC(=O)OCc1ccccc1)C(=O)O)C(=O)O (stereo not drawn)
inactive: dose: 100.0 mg/kg/injection, schedule: Q01DX001 (ip), vehicle: Klucel (hydroxypropylcellulose) (HPC) 93 % of control | dose: 200.0 mg/kg/injection, schedule: Q01DX001 (ip), vehicle: Klucel (hydroxypropylcellulose) (HPC) 90 % of control | dose: 400.0 mg/kg/injection, schedule: Q01DX001 (ip), vehicle: Klucel (hydroxypropylcellulose) (HPC) 98 % of control

CCCCCC[N+]1(C)CC2C3C=CC(C3)C2C1 (stereo not drawn)
inactive: dose: 12.5 mg/kg/injection, schedule: Q04DX003 (ip), vehicle: saline 103 % of control | [12] 97 % of control | dose: 50.0 mg/kg/injection, schedule: Q04DX003 (ip), vehicle: saline 97 % of control | dose: 75.0 mg/kg/injection, schedule: Q04DX003 (ip), vehicle: saline 92 % of control

CCCCNC(=O)/C=C\C(=O)O
inactive: dose: 50.0 mg/kg/injection, schedule: Q01DX009 (ip), vehicle: saline with Tween-80 95 % of control | dose: 100.0 mg/kg/injection, schedule: Q01DX009 (ip), vehicle: Klucel (hydroxypropylcellulose) (HPC) 87 % of control | [7] 97 % of control | dose: 100.0 mg/kg/injection, schedule: Q01DX009 (ip), vehicle: saline 92 % of control | [13] 100 % of control | dose: 200.0 mg/kg/injection, schedule: Q01DX009 (ip), vehicle: Klucel (hydroxypropylcellulose) (HPC) 87 % of control | [9] 95 % of control | dose: 200.0 mg/kg/injection, schedule: Q01DX009 (ip), vehicle: saline 94 % of control | dose: 400.0 mg/kg/injection, schedule: Q01DX009 (ip), vehicle: Klucel (hydroxypropylcellulose) (HPC) 100 % of control | dose: 400.0 mg/kg/injection, schedule: Q01DX009 (ip), vehicle: saline 97 % of control | [14] 87 % of control

C#CCCCN1CCC2(CC1)C(=O)N(C(=O)N(C)C)CN2c1ccccc1
inactive: dose: 25.0 mg/kg/injection, schedule: Q04DX003 (ip), vehicle: saline with Tween-80 105 % of control | dose: 50.0 mg/kg/injection, schedule: Q04DX003 (ip), vehicle: saline with Tween-80 103 % of control | [8] 88 % of control and 92 % of control

CS(=O)(=O)Oc1ccc(S(=O)(=O)F)cc1Cl
inactive: dose: 100.0 mg/kg/injection, schedule: Q04DX002 (ip), vehicle: Klucel (hydroxypropylcellulose) (HPC) 102 % of control | dose: 200.0 mg/kg/injection, schedule: Q04DX002 (ip), vehicle: Klucel (hydroxypropylcellulose) (HPC) 94 % of control

C=CCNC(=S)Nc1cccc(C(C)OC(=O)NC(C)(C)C)c1 (stereo not drawn)
inactive: [7] 106 % of control | [8] 95 % of control | [9] 107 % of control | [10] 93 % of control | [11] 94 % of control

CCc1cccc[n+]1CC(=O)c1ccccc1
inactive: dose: 6.25 mg/kg/injection, schedule: Q01DX009 (ip), vehicle: saline 95 % of control | dose: 12.5 mg/kg/injection, schedule: Q01DX009 (ip), vehicle: saline 98 % of control | [12] 96 % of control

CC(=O)OC1(c2ccccc2)OC(=O)C(C)(C)c2ccccc21 (stereo not drawn)
inactive: [1] 94 % of control | [2] 91 % of control

CCn1c[n+](-c2ccccc2)cn1
inactive: dose: 100.0 mg/kg/injection, schedule: Q01DX001 (ip), vehicle: saline 106 % of control

O=C(O)COc1ccc(Cl)cc1
inactive: [13] 97 % of control | dose: 200.0 mg/kg/injection, schedule: Q04DX003 (ip), vehicle: Klucel (hydroxypropylcellulose) (HPC) 100 % of control | [14] 100 % of control

CC1(O)OC(n2c(Br)nc3c(N)ncnc32)C(O)C1O (stereo not drawn)
inactive: dose: 100.0 mg/kg/injection, schedule: Q01DX001 (ip), vehicle: carboxymethylcellulose (CMC) 103 % of control | dose: 200.0 mg/kg/injection, schedule: Q01DX001 (ip), vehicle: carboxymethylcellulose (CMC) 101 % of control | dose: 400.0 mg/kg/injection, schedule: Q01DX001 (ip), vehicle: carboxymethylcellulose (CMC) 95 % of control

CN(C)C(=C1C=CC=C1)N(C)C
inactive: dose: 20.0 mg/kg/injection, schedule: Q04DX003 (ip), vehicle: saline 101 % of control | dose: 40.0 mg/kg/injection, schedule: Q04DX003 (ip), vehicle: saline 96 % of control | dose: 80.0 mg/kg/injection, schedule: Q04DX003 (ip), vehicle: saline 92 % of control
